Patent US9226501B2, “Pesticidal compositions and processes related thereto” (Dow AgroSciences LLC, priority 2012, dated 2016)

Key:
[1] = tested on: Beet Armyworm (BAW) (spodoptera exigua); assay: Bioassay on beet armyworm (BAW), 128-well diet tray assay; assay type: in vivo; details: for BAW Rating: Table 5, prophetic compounds subsequently exemplified, beet armyworm; for pest or weed control at 50 µg/cm2: Spodoptera exigua, 168 h, % mortality, second instar larvae, 50 μg/cm^2 on artificial diet, five to seven days, 25° C., read-out: BAW Rating
Experimental: (§1) Certain molecules disclosed in this document were tested against BAW, CEW and CL using procedures described in the following examples. In the reporting of the results, the “BAW & CEW & CL Rating Table” was used (See Table Section).
Bioassays on BAW were conducted using a 128-well diet tray assay. One to five second instar BAW larvae were placed in each well (3 mL) of the diet tray that had been previously filled with 1 mL of artificial diet to which 50 μg/cm^2 of the test compound (dissolved in 50 μL of 90:10 acetone-water mixture) had been applied (to each of eight wells) and then allowed to dry. Trays were covered with a clear self-adhesive cover, and held at 25° C., 14:10 light-dark for five to seven days. Percent mortality was recorded for the larvae in each well; activity in the eight wells was then averaged. The results are indicated in the tables entitled “Table 3: Assay Results Part 1” and “Table 4: Assay Results Part 2” (See Table Section).

[2] = tested on: Cabbage Looper (CL) (Trichoplusia ni); assay: Bioassay on cabbage looper (CL), 128-well diet tray assay; assay type: in vivo; details: for CL Rating: Table 5, prophetic compounds subsequently exemplified, cabbage looper; for pest or weed control at 50 µg/cm2: Trichoplusia ni, 168 h, % mortality, second instar larvae, 50 μg/cm^2 on artificial diet, five to seven days, 25° C., read-out: CL Rating
Experimental: as §1
Bioassays on CL were conducted using a 128-well diet tray assay. One to five second instar CL larvae were placed in each well (3 mL) of the diet tray that had been previously filled with 1 mL of artificial diet to which 50 μg/cm^2 of the test compound (dissolved in 50 μL of 90:10 acetone-water mixture) had been applied (to each of eight wells) and then allowed to dry. Trays were covered with a clear self-adhesive cover, and held at 25° C., 14:10 light-dark for five to seven days. Percent mortality was recorded for the larvae in each well; activity in the eight wells was then averaged. The results are indicated in the table entitled “Table 4: Assay Results Part 2” (See Table Section).

C[C@@H](NC(=O)c1ccc(/C=C/C(c2ccc(F)c(C#N)c2)C(F)(F)F)cc1C(F)(F)F)C(=O)NCC(F)(F)F (stereo partly drawn) [P804]
BAW Rating [1]: A (50-100) | CL Rating [2]: A (50-100)

O=C(NCC(=S)NCC(F)(F)F)c1ccc(/C=C/C(c2cc(Cl)c(Cl)c(Cl)c2)C(F)(F)F)cc1Cl (stereo not drawn) [P1558]
BAW Rating [1]: A (50-100) | CL Rating [2]: A (50-100)

C[C@@H](NC(=O)c1ccc(/C=C/C(c2cc(F)cc(Br)c2)C(F)(F)F)cc1C(F)(F)F)C(=O)NCC(F)(F)F (stereo partly drawn) [P300]
BAW Rating [1]: A (50-100) | CL Rating [2]: A (50-100)

C[C@@H](NC(=O)c1ccc(/C=C/C(c2cc(Cl)c(Cl)c(Cl)c2)C(F)(F)F)cc1Br)C(=O)NCCF (stereo partly drawn) [P1616]
BAW Rating [1]: A (50-100) | CL Rating [2]: A (50-100)

CC(NC(=O)CNC(=O)c1ccc(/C=C/C(c2cc(Br)cc(Br)c2)C(F)(F)F)cc1C(F)(F)F)C(F)(F)F (stereo not drawn) [P2011]
BAW Rating [1]: A (50-100) | CL Rating [2]: A (50-100)

O=C(NCC(=S)NCC(F)(F)F)c1ccc(/C=C/C(c2cc(Cl)c(Cl)c(Cl)c2)C(F)(F)F)cc1C(F)(F)F (stereo not drawn) [P1559]
BAW Rating [1]: A (50-100) | CL Rating [2]: A (50-100)

C[C@@H](NC(=O)c1ccc(/C=C/C(c2cc(Br)c(Cl)c(Br)c2)C(F)(F)F)cc1C(F)(F)F)C(=O)NCC(F)(F)F (stereo partly drawn) [FA27]
pest or weed control at 50 µg/cm2 [1]: 50 to 100% | pest or weed control at 50 µg/cm2 [2]: 50 to 100%

O=C(CNC(=O)c1ccc(/C=C/C(c2ccc(F)c(C(F)(F)F)c2)C(F)(F)F)cc1Br)NCC(F)(F)F (stereo not drawn) [P1483]
BAW Rating [1]: A (50-100) | CL Rating [2]: A (50-100)

CC(NC(=O)c1ccc(/C=C/C(c2cc(Cl)c(Cl)c(Cl)c2)C(F)(F)F)cc1C(F)(F)F)C(=O)NCCC(F)(F)F (stereo not drawn) [P1633A]
BAW Rating [1]: A (50-100) | CL Rating [2]: A (50-100)

O=C(CNC(=O)c1ccc(/C=C/C(c2cc(Br)cc(Br)c2)C(F)(F)F)cc1Cl)NCC(F)(F)F (stereo not drawn) [P1970]
BAW Rating [1]: A (50-100) | CL Rating [2]: A (50-100)

O=C(CNC(=O)c1ccc(/C=C/C(c2cc(F)cc(C(F)(F)F)c2)C(F)(F)F)cc1Br)NCC(F)(F)F (stereo not drawn) [P1340]
BAW Rating [1]: A (50-100) | CL Rating [2]: A (50-100)

CC(C)(NC(=O)c1ccc(/C=C/C(c2cc(Cl)c(Cl)c(Cl)c2)C(F)(F)F)cc1C(F)(F)F)C(=S)NCC(F)(F)F (stereo not drawn) [FA12]
pest or weed control at 50 µg/cm2 [1]: 50 to 100% | pest or weed control at 50 µg/cm2 [2]: 50 to 100%

O=C(CNC(=O)c1ccc(/C=C/C(c2ccc(Cl)c(Cl)c2)C(F)(F)F)cc1)NCC(F)(F)F (stereo not drawn) [P1781]
BAW Rating [1]: A (50-100) | CL Rating [2]: A (50-100)

C[C@@H](NC(=O)c1ccc(/C=C/C(c2cc(Cl)cc(Cl)c2)C(F)(F)F)cc1Br)C(=O)NCC(F)(F)F (stereo partly drawn) [P1696]
BAW Rating [1]: A (50-100) | CL Rating [2]: A (50-100)

O=C(CNC(=O)c1cc(O)c(/C=C/C(c2cc(Cl)c(Cl)c(Cl)c2)C(F)(F)F)cc1Cl)NCC(F)(F)F (stereo not drawn) [FA4]
pest or weed control at 50 µg/cm2 [1]: 50 to 100% | pest or weed control at 50 µg/cm2 [2]: 50 to 100%

COc1cc(C(=O)NCC(=O)NCC(F)(F)F)c(Cl)cc1/C=C/C(c1cc(Cl)c(Cl)c(Cl)c1)C(F)(F)F (stereo not drawn) [FA5]
pest or weed control at 50 µg/cm2 [1]: 50 to 100% | pest or weed control at 50 µg/cm2 [2]: 50 to 100%

Cc1cc(/C=C/C(c2cc(Cl)c(Cl)c(Cl)c2)C(F)(F)F)ccc1C(=O)NCC(=S)NCC(F)(F)F (stereo not drawn) [P1560]
BAW Rating [1]: A (50-100) | CL Rating [2]: A (50-100)

Cc1cc(/C=C/C(c2cc(Br)cc(Br)c2)C(F)(F)F)ccc1C(=O)NCC(=O)NC(C)C(F)(F)F (stereo not drawn) [P2012]
BAW Rating [1]: A (50-100) | CL Rating [2]: A (50-100)
